US20200017495A1, “NOVEL HETEROCYCLIC COMPOUNDS AND THEIR USE IN PREVENTING OR TREATING BACTERIAL INFECTIONS” (priority 2017, published 2020)

Columns and labels:
Type in all cases: cell-based
[1] = system: Proteus mirabilis (PMI) isolates; test: microbe, parasite or virus in culture
Method in brief: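 First, log-phase suspensions are brought to 5.10^5 CFU/mL final in ca-MHB; plates then incubate 16-20 h at 35° C in air. Growth is judged visually, giving the compound MIC alone and the antibacterial MIC at each compound concentration.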

[2] = system: Providencia stuartii (PST) isolates; test: MIC of compounds alone and combined with antibacterials, broth microdilution (CLSI)
Method in brief: (§1)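 Genotyped isolates; cpd ± antibacterial, DMSO spots; ca-MHB, 5.10^5 CFU/mL; 35° C, 16-20 h, air; visual MIC; ATB MIC per cpd concentration.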

[3] = system: Salmonella typhimurium (STY) isolates; test: as above; details: for MIC ATB in combination: STY S3371
Method in brief: as §1

SMILES: C=CC1=C(C(=O)O)N2C(=O)[C@@H](NC(=O)/C(=N\OCC(=O)O)c3csc(N)n3)[C@H]2SC1 [FIX, Cefixime]
- MIC ATB in combination ([1]; PMI UFR237, CLA @ 4 μg/mL): <=0.25 μg/mL
- MIC ([1]; strain PMI UFR82, genotype CMY-2): 8 µg/mL
- MIC ([1]; strain PMI UFR120, genotype TEM-1, SHV-11, CTX-M-14): 0.5 µg/mL
- MIC ([1]; strain PMI UFR121, genotype TEM-1, TEM-52): 128 µg/mL
- MIC ([1]; strain PMI UFR122, genotype TEM-1, CTX-M-15): 1 µg/mL
- MIC ([1]; strain PMI UFR123, genotype CTX-M-1): 128 µg/mL
- MIC ([1]; strain PMI UFR124, genotype CTX-M-2): >128 µg/mL
- MIC ([1]; strain PMI UFR125, genotype CTX-M-71): 0.5 µg/mL
- MIC ([1]; strain PMI UFR126, compound alone): 1024 µg/mL
- MIC ([1]; strain PMI UFR126, genotype TEM-2, PER-1): 1024 µg/mL
- MIC ([1]; strain PMI UFR127, compound alone): >128 µg/mL
- MIC ([1]; strain PMI UFR127, genotype VEB-1): >128 µg/mL
- MIC ([1]; strain PMI UFR128, genotype VEB-1, OXA-10): >128 µg/mL
- MIC ([1]; strain PMI UFR129, genotype TEM-1, VEB-6): >128 µg/mL
- MIC ([1]; strain PMI UFR130, genotype CMY-2): 8 µg/mL
- MIC ([1]; strain PMI UFR131, genotype CMY-16, OXA-1, OXA-10, NDM-1, ArmA): >128 µg/mL
- MIC ATB in combination ([1]; strain PMI UFR131, with AF2 @ 8 μg/mL): <0.25 µg/mL
- MIC ATB in combination ([1]; strain PMI UFR131, with AF3 @ 8 μg/mL): <0.25 µg/mL
- MIC ATB in combination ([1]; strain PMI UFR131, with CLA @ 4 μg/mL): >128 µg/mL
- MIC ([1]; strain PMI UFR132, genotype VEB-6, DHA-1, NDM-1, AphA6, AacA4): >128 µg/mL
- MIC ATB in combination ([1]; strain PMI UFR132, with AF2 @ 8 μg/mL): <0.25 µg/mL
- MIC ATB in combination ([1]; strain PMI UFR132, with AF3 @ 8 μg/mL): <0.25 µg/mL
- MIC ATB in combination ([1]; strain PMI UFR132, with CLA @ 4 μg/mL): >128 µg/mL
- MIC ([1]; strain PMI UFR133, genotype OXA-23): <=0.25 μg/mL
- MIC ([1]; strain PMI UFR237, genotype VEB-6): >128 µg/mL
- MIC ATB in combination ([2]; PST UFR94, AF2 @ 8 μg/mL): <=0.25 μg/mL
- MIC ATB in combination ([2]; PST UFR94, AF3 @ 8 μg/mL): <=0.25 μg/mL
- MIC ATB in combination ([2]; PST UFR94, CLA @ 4 μg/mL): 2 µg/mL
- MIC ATB in combination ([2]; PST UFR95, AF2 @ 8 μg/mL): <=0.25 μg/mL
- MIC ATB in combination ([2]; PST UFR95, AF3 @ 8 μg/mL): <=0.25 μg/mL
- MIC ATB in combination ([2]; PST UFR95, CLA @ 4 μg/mL): 8 µg/mL
- MIC ATB in combination ([2]; PST UFR120, AF2 @ 8 μg/mL): <0.25 µg/mL
- MIC ATB in combination ([2]; PST UFR120, AF3 @ 8 μg/mL): <0.25 µg/mL
- MIC ATB in combination ([2]; PST UFR120, CLA @ 4 μg/mL): <=0.25 μg/mL
- MIC ATB in combination ([2]; PST UFR121, AF2 @ 8 μg/mL): <0.25 µg/mL
- MIC ATB in combination ([2]; PST UFR121, AF3 @ 8 μg/mL): <0.25 µg/mL
- MIC ATB in combination ([2]; PST UFR121, CLA @ 4 μg/mL): <=0.25 μg/mL
- MIC ATB in combination ([2]; PST UFR122, AF2 @ 8 μg/mL): <0.25 µg/mL
- MIC ATB in combination ([2]; PST UFR122, AF3 @ 8 μg/mL): <0.25 µg/mL
- MIC ATB in combination ([2]; PST UFR122, CLA @ 4 μg/mL): <=0.25 μg/mL
- MIC ATB in combination ([2]; PST UFR123, AF2 @ 8 μg/mL): <0.25 µg/mL
- MIC ATB in combination ([2]; PST UFR123, AF3 @ 8 μg/mL): <0.25 µg/mL
- MIC ATB in combination ([2]; PST UFR123, CLA @ 4 μg/mL): <=0.25 μg/mL
- MIC ATB in combination ([2]; PST UFR124, AF2 @ 8 μg/mL): <0.25 µg/mL
- MIC ATB in combination ([2]; PST UFR124, AF3 @ 8 μg/mL): <0.25 µg/mL
- MIC ATB in combination ([2]; PST UFR124, CLA @ 4 μg/mL): <=0.25 μg/mL
- MIC ATB in combination ([2]; PST UFR125, AF2 @ 8 μg/mL): <0.25 µg/mL
- MIC ATB in combination ([2]; PST UFR125, AF3 @ 8 μg/mL): <0.25 µg/mL
- MIC ATB in combination ([2]; PST UFR125, CLA @ 4 μg/mL): <=0.25 μg/mL
- MIC ATB in combination ([2]; PST UFR235, AF2 @ 8 μg/mL): <=0.25 μg/mL
- MIC ATB in combination ([2]; PST UFR235, AF3 @ 8 μg/mL): <=0.25 μg/mL
- MIC ATB in combination ([2]; PST UFR235, CLA @ 4 μg/mL): 8 µg/mL
- MIC ([2]; strain PST UFR94, genotype CTX-M-14): 0.5 µg/mL
- MIC ([2]; strain PST UFR95, genotype TEM-24): 4 µg/mL
- MIC ([2]; strain PST UFR98, genotype TEM-1, CMY-6, OXA-1, NDM-1, RmtC): >128 µg/mL
- MIC ATB in combination ([2]; strain PST UFR98, with AF2 @ 8 μg/mL): 64 µg/mL
- MIC ATB in combination ([2]; strain PST UFR98, with AF3 @ 8 μg/mL): 32 µg/mL
- MIC ATB in combination ([2]; strain PST UFR98, with CLA @ 4 μg/mL): >128 µg/mL
- MIC ([2]; strain PST UFR235, compound alone): 512 µg/mL
- MIC ([2]; strain PST UFR235, genotype VEB-1): 512 µg/mL
- MIC ATB in combination ([3]; AF2 @ 8 μg/mL): <0.25 µg/mL
- MIC ATB in combination ([3]; AF3 @ 8 μg/mL): <0.25 µg/mL
- MIC ATB in combination ([3]; CLA @ 4 μg/mL): <=0.25 μg/mL
- MIC ([3]; strain STY S3371, genotype OXA-1): <=0.25 μg/mL
